Values quoted from earlier work in patent US11547680B2, “Benzalkonium-embedded mesostructured silica compositions and uses of same” (RUTGERS, THE STATE UNIVERSITY OF NEW JERSEY, priority 2018, dated 2023).

Settings: aqueous solution

benzalkonium chloride [BAC]
critical micelle concentration (CMC): ca. 0.5 mM
